Like-named read-outs stand apart in the source and are kept apart here.
What was measured:
[1] = Uterine weight in ovariectomized rats; type: in vivo, rat; conditions: OVX rats; for uterine weight compared with control group: 200 μg/kg sc; for Uterine Weight (g, ± SEM): 200 μg/kg sc in corn oil, 2 hours prior to MCAO, harvested 24 hours after reperfusion
Experimental: Female, Sprague rats (200-250 g, Charles River, Wilmington, Mass.) were acclimatized for three days prior to surgery. Bilateral ovariectomy (OVX) was performed two weeks prior to middle cerebral artery occlusion (MCAO). Animals were anesthetized by intraperitoneal injection of ketamine (60 mg/kg) and xylazine (10 mg/kg). Rectal temperature was maintained at 37.5±0.5° C. during procedure. The middle cerebral artery was occluded for one hour then suture was withdrawn for reperfusion. […] Animals were decapitated 24 hours after reperfusion. Uteruses were harvested, blotted, and weighed for comparison among treatment groups.

[2] = molecular target: T1, recombinant estrogen receptor α (ERα) (Homo sapiens, UniProt P03372); experiment: Competition binding assay, […] EFC Estrogen Chemiluminescence Assay
T1 construct: purchased Panvera, Madison, Wis
T1 sequence (P03372 1-595): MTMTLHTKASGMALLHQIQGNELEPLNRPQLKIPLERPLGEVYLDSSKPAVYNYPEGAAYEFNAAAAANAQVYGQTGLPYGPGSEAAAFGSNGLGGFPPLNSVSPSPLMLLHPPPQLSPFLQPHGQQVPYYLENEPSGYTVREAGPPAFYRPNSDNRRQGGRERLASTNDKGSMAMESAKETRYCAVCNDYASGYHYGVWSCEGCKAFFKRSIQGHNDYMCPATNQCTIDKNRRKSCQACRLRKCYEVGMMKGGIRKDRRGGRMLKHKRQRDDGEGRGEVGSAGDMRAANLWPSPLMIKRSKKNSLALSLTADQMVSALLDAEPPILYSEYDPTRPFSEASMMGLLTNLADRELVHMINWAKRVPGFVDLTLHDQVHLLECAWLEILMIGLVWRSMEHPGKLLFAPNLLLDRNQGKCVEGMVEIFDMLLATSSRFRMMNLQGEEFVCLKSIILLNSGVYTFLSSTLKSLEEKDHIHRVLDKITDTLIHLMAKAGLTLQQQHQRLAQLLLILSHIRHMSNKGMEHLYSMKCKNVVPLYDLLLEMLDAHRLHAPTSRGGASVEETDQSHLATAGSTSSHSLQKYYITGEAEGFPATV
Experimental: (§1) Competition binding assays were performed using an enzyme fragment complementation (EFC) method described in the […] EFC Estrogen Chemiluminescence Assay kit (Fremont, Calif.). […] The enzyme acceptor was then added for another 1.5 hours after which chemiluminescence substrate was added for another hour. Relative luminescences were determined using a Biotek FL600 plate reader (Biotek Instruments, Winooski, Vt.).

[3] = molecular target: T2, recombinant estrogen receptor β (ERβ) (Homo sapiens, UniProt Q92731); experiment: as above
T2 construct: purchased Panvera, Madison, Wis
Experimental: as §1

[4] = In vitro reduction of estrone-quinol to estrone by reducing agents in phosphate buffer (LC/MS); type: in vitro ADME; conditions: for extent of reductive conversion: pH 7.5, 37° C.
Experimental: Estrone-quinol (0.1 mM) was incubated at 37° C. in 0.1 M phosphate buffer pH 7.5 in the presence of 1 mM of NADH, NADPH, sodium ascorbate, and glutathione (GSH). Aliquots (500 μl) were taken after 60 minutes of incubation, and extracted with ethyl acetate (3×0.5 mL) and the mixture vortexed for 1 minute and centrifuged at […] for 5 minutes. After removing the solvent, the residue of the combined organic extracts was analyzed for their estrone content by LC/MS/MS.
Mass spectra were recorded on a quadrupole ion-trap instrument (LCQ, ThermoFinnigan) using positive-ion APCI as the method of ionization. […] Compound identification was based on retention time (tR), APCI mass spectra, MS/MS and MS^3 with authentic compounds as references. […].
At incremental time points, […] aliquots were removed into ice-cooled centrifuge tubes, and 50 μl of glacial acetic acid was added. After immediate extraction with ethyl acetate (2×500 μl), the organic layer was evaporated under nitrogen stream at room temperature. Reconstitution of the samples with the LC mobile phase was followed by LC/MS analyses. For control, no reducing agents were used.
[…]. […] Kinetic analysis of the microsomal metabolism was done by nonlinear curve-fitting (Scientist for Windows; MicroMath, Inc., Salt Lake City, Utah) presuming consecutive first-order processes in the cascade of estrone-quinol→estrone→estrone-metabolites.

[5] = Cerebral microdialysis, reduction of estrone-quinol to estrone in vivo; set-up: species or system rat; conditions: probe perfused at 1 μl/min with 10 picomole/μL in aCSF, ventral hippocampus
Text: Male, Sprague rats (300-400 g) were anesthetized, placed in a stereotaxic instrument, and a guide cannula (CMA/12 guide cannula) was implanted into the ventral hippocampus under aseptic conditions. The guide cannula was fixed to the skull, together with stainless steel screws attached into additional two holes, with dental acrylics. Before starting the experiment (usually 5-7 days after the implantation of the guide cannula implantation) the rats were placed in a containment unit (BAS, Inc.) for at least 30 minutes. Then a microdialysis probe (CMA/12 polycarbonate membrane diameter 0.5 mm; membrane length 4 mm; molecular cut off: 5,000 Da) was inserted into the ventral hippocampus through the guide cannula. After insertion, the microdialysis probe was perfused with an artificial cerebrospinal fluid (aCSF) at a flow rate of 1 μl/min. maintained by a microperfusion pump (BAS BeeStinger) attached to the probe via polyethylene tubing and a liquid swivel. After equilibration for 50 minutes, an automatic refrigerated fraction collector (BAS HoneyComb) was used for continuous sampling of the probe efflux for 24 hours in 60 minute fractions collected into 300-μl glass vials (control). […]

T2 sequence (Q92731 whole entry): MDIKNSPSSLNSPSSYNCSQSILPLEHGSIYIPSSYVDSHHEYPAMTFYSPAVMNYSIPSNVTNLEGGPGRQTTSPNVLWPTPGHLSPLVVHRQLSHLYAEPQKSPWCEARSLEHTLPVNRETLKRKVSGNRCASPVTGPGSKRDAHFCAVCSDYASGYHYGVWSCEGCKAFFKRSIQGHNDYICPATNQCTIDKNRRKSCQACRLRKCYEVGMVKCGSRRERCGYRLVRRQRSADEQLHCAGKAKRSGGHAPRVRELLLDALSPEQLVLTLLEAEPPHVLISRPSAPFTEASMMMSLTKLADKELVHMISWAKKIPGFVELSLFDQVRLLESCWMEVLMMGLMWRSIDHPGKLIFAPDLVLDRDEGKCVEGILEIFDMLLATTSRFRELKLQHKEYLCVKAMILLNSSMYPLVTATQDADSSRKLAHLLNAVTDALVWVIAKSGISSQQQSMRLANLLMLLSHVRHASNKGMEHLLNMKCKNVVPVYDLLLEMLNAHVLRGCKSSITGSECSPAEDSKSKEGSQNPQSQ

Row | SMILES | uterine weight compared with control group [1] | Uterine Weight (g, ± SEM) [1] [g] | IC50 ([2]; ERα, read-out: IC50) [µM] | IC50 ([3]; ERβ, read-out: IC50) [µM] | IC50 [2] [µM] | IC50 [3] [µM] | initial rate of second-order reaction for the reduction by NADPH ([4]; 10-fold excess of NADPH, microsome-free buffer solution, identical incubation conditions) [nmol/min] | extent of reductive conversion ([4]; Example 4, 1.0 mM NADH) | extent of reductive conversion ([4]; Example 4, 1.0 mM NADPH) | flux of entry into the brain [5]
1 | C[C@]12CC[C@@H]3c4ccc(O)cc4CC[C@H]3[C@@H]1CCC2=O [E1, estrone, reference compound] | doubled | 0.222 ± 0.022 | – | – | – | – | – | – | – | –
2 | C[C@]12CC[C@H]3[C@@H](CCC4=CC(=O)C=C[C@@]43O)[C@@H]1CC[C@@H]2O [E2-quinol] | – | – | > 10 | > 10 | – | – | – | – | – | –
3 | C[C@]12CC[C@H]3[C@@H](CCC4=CC(=O)C=C[C@@]43O)[C@@H]1CCC2=O [E1-quinol, 10β-hydroxyestra-1,4-diene-3,17-dione] | no difference | 0.115 ± 0.010 | – | – | > 10 | > 10 | 0.62 ± 0.03 | significant extent of reductive conversion | significant extent of reductive conversion | about 2 picomole/minute

From patent US7300926B2, “Steroidal quinols and their use for estrogen replacement therapy” (University of Florida Research Foundation, Inc., priority 2002, dated 2007)
